In the supplement of paper PMC9265050, “Inhibition of RNA Binding in SND1 Increases the Levels of miR-1-3p and Sensitizes Cancer Cells to Navitoclax” (Cancers, 2022) one finds drug sensitivity score data, which are given here for 40 molecules.

The test deals with SW480. In words: drug sensitivity score (DSS, integrated dose-response area); higher = more sensitive (stronger viability reduction); extreme values may be limits of the assay. The essentials:
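SW480 cells stably carrying doxycycline-inducible control or SND1-targeting shRNA were induced with 0.1 µg/mL doxycycline for 7 days. They were then plated at 1000 cells per well in 384-well plates holding 525 commercially available small-molecule inhibitors at five concentrations. Viability was read with CellTiter-Glo after 72 h. The drug sensitivity score integrates the area under a fitted non-linear dose–response model.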

The mark [1] stands for this setting: shRNA: SND1 shRNA1 (SND1 silenced).
The mark [2] stands for this setting: shRNA: control shRNA (non-targeting).
Where [3] appears, read: shRNA: SND1 shRNA2 (SND1 silenced).

Molecules are shown by their SMILES.

As to `CO[C@H]1C[C@@H]2CC[C@@H](C)[C@@](O)(O2)C(=O)C(=O)N2CCCC[C@H]2C(=O)O[C@H]([C@H](C)C[C@@H]2CC[C@@H](O)[C@H](OC)C2)CC(=O)[C@H](C)/C=C(\C)[C@@H](O)[C@@H](OC)C(=O)[C@H](C)C[C@H](C)/C=C/C=C/C=C/1C` [Sirolimus], the drug sensitivity score was 7.8 DSS under setting [1] and 6.9 DSS under setting [2].
In turn, `Cc1c(C(=O)Nc2ccc(N3C[C@@H](C)O[C@@H](C)C3)nc2)cccc1-c1ccc(OC(F)(F)F)cc1` [Sonidegib] showed a drug sensitivity score under setting [1] of 2.9 DSS, a drug sensitivity score under setting [3] of 5.7 DSS and a drug sensitivity score under setting [2] of 2.8 DSS.
The like results for `C=CCN(/C=C1/C(=O)O[C@H](COC)[C@@]2(C)C1=C(O)C(=O)C1=C2[C@H](OC(C)=O)C[C@]2(C)C(=O)CC[C@@H]12)CC=C` [Sonolisib] were, in that order, 0 DSS, 0.3 DSS and 2.1 DSS.
Taken in the same sequence, the figures for `CNC(=O)c1cc(Oc2ccc(NC(=O)Nc3ccc(Cl)c(C(F)(F)F)c3)cc2)ccn1` [Sorafenib] were 0 DSS, 0 DSS and 0 DSS.
As to `CN1CCN(c2nc(C3=C(c4c[nH]c5ccccc45)C(=O)NC3=O)c3ccccc3n2)CC1` [Sotrastaurin], the drug sensitivity score stood at 4.5 DSS under setting [1], 0.5 DSS under setting [3] and 4.9 DSS under setting [2].
Taken in the same sequence, the figures for `C=CC(=O)Nc1cccc(Nc2nc(Nc3ccc(OCCOC)cc3)ncc2F)c1` [Spebrutinib] were 2.5 DSS, 0 DSS and 4.4 DSS.
The like results for `O=[N+]([O-])c1ccc2c(c1)S(=O)(=O)C=C2` [Stattic] were, in that order, 16 DSS, 15.8 DSS and 9.5 DSS.
`CC(C)n1cnc2c(NCCc3ccc(O)cc3)nc(-c3csc4ccccc34)nc21` [StemRegenin 1]: the drug sensitivity score is, setting by setting: under setting [1], 1.3 DSS; under setting [3], 1 DSS; under setting [2], 0.8 DSS.
The like results for `CN(N=O)C(=O)N[C@@H](C=O)[C@@H](O)[C@H](O)[C@H](O)CO` [Streptozocin] were, in that order, 0.8 DSS, 5.9 DSS and 4.1 DSS.
The like results for `CCN(CC)CCNC(=O)c1c(C)[nH]c(/C=C2\C(=O)Nc3ccc(F)cc32)c1C` [Sunitinib] were, in that order, 0.3 DSS, 0.1 DSS and 0.7 DSS.
The like results for `CC(C)(O)CC(=O)NCCn1ccc2ncnc(Nc3ccc(Oc4cccc(C(F)(F)F)c4)c(Cl)c3)c21` [TAK-285] were, in that order, 0 DSS, 0 DSS and 0 DSS.
As for `N#Cc1c(Oc2ccc(F)c(NC(=O)Cc3cccc(C(F)(F)F)c3)c2)ccc2nc(NC(=O)C3CC3)sc12` [TAK-632], the drug sensitivity score is, setting by setting: under setting [1], 5.9 DSS; under setting [3], 0.5 DSS; under setting [2], 3.1 DSS.
On to `CCc1nc(-c2cccc(C)c2)c(-c2ccnc(NC(=O)c3ccccc3)c2)s1` [TAK-715], for which the drug sensitivity score amounted to 4.7 DSS under setting [1] and 5.1 DSS under setting [2].
In the case of `Cn1c(=O)c(F)c(Nc2ccc(I)cc2F)c2c(=O)n(C[C@@H](O)CO)cnc21` [TAK-733], the drug sensitivity score amounted to 21.7 DSS under setting [1], 12.2 DSS under setting [3] and 12 DSS under setting [2].
Taken in the same sequence, the figures for `CCS(=O)(=O)c1cccc(-c2cc(C(=O)NC3CCN(C)CC3)c(C)c3[nH]c4ncc(C)cc4c23)c1` [TAK-901] were 0.6 DSS, 0 DSS and 2.1 DSS.
Regarding `COc1cc(C(=O)NC2CCN(C)CC2)c(F)cc1Nc1ncc2c(n1)N(C1CCCC1)CC(F)(F)C(=O)N2C` [TAK-960], the drug sensitivity score amounted to 0.1 DSS under setting [1], 5.4 DSS under setting [3] and 3.6 DSS under setting [2].
With `Cc1cccc(-c2[nH]c(CNc3ccccc3F)nc2-c2ccc3ncnn3c2)n1` [TEW-7197], the drug sensitivity score turned out to be 0 DSS under setting [1], 0.6 DSS under setting [3] and 0.6 DSS under setting [2].
For the molecule `Nc1nc(N)c2nc(-c3cccc(O)c3)c(-c3cccc(O)c3)nc2n1` [TG100-115], the drug sensitivity score runs as follows: under setting [1], 0 DSS; under setting [3], 2.6 DSS; under setting [2], 4.9 DSS.
The like results for `Cc1cc(C(C)Nc2ccccc2)c2nc(N3CCOCC3)cc(=O)n2c1` (configuration not stated) [TGX-221] were, in that order, 1.6 DSS, 2.5 DSS and 0.8 DSS.
Regarding `Nc1nc(NC2CC2)cc(-c2cccc(Cl)c2Cl)n1` [TH588], the drug sensitivity score runs as follows: under setting [1], 6.2 DSS; under setting [2], 6.3 DSS.
On to `NC(=O)Nc1sc(-c2ccc(F)cc2)cc1C(N)=O` [TPCA-1], for which the drug sensitivity score runs as follows: under setting [1], 3.8 DSS; under setting [2], 2.3 DSS.
As to `Clc1ccccc1C(c1ccccc1)(c1ccccc1)n1cccn1` [TRAM-34], the drug sensitivity score is 0 DSS under setting [1], 0 DSS under setting [3] and 1.3 DSS under setting [2].
Regarding `CC(=O)Nc1ccc(C(=O)Nc2ccccc2N)cc1` [Tacedinaline], the drug sensitivity score stood at 0 DSS under setting [1], 4.5 DSS under setting [3] and 3.8 DSS under setting [2].
Turning to `C=CC[C@@H]1/C=C(\C)C[C@H](C)C[C@H](OC)[C@H]2O[C@@](O)(C(=O)C(=O)N3CCCC[C@H]3C(=O)O[C@H](/C(C)=C/[C@@H]3CC[C@@H](O)[C@H](OC)C3)[C@H](C)[C@@H](O)CC1=O)[C@H](C)C[C@@H]2OC` [Tacrolimus], the drug sensitivity score runs as follows: under setting [1], 0 DSS; under setting [2], 0 DSS.
In the case of `Cn1ncnc1[C@H]1c2n[nH]c(=O)c3cc(F)cc(c23)N[C@@H]1c1ccc(F)cc1` [Talazoparib], the drug sensitivity score under setting [1] came to 5.8 DSS, the drug sensitivity score under setting [3] stood at 0 DSS and the drug sensitivity score under setting [2] was determined as 2.5 DSS.
In the case of `C[C@@H]1CN(Cc2ccc(F)cc2)[C@@H](C)CN1C(=O)c1cc2c(C(=O)C(=O)N(C)C)cn(C)c2cc1Cl` [Talmapimod], the drug sensitivity score was found to be 0 DSS under setting [1] and 0 DSS under setting [2].
On to `COc1cc(Nc2ncc(F)c(Nc3ccc4c(n3)NC(=O)C(C)(C)O4)n2)cc(OC)c1OC` [Tamatinib], for which the drug sensitivity score was determined as 0.4 DSS under setting [1], 0.4 DSS under setting [3] and 0 DSS under setting [2].
Consider `CC/C(=C(\c1ccccc1)c1ccc(OCCN(C)C)cc1)c1ccccc1` [Tamoxifen], for which the drug sensitivity score by setting is: under setting [1], 5 DSS; under setting [3], 4.4 DSS; under setting [2], 5.9 DSS.
`COc1cc2c(N3CCN(C(=O)Nc4ccc(OC(C)C)cc4)CC3)ncnc2cc1OCCCN1CCCCC1` [Tandutinib]: the drug sensitivity score runs as follows: under setting [1], 0.5 DSS; under setting [3], 4.3 DSS; under setting [2], 3 DSS.
Taken in the same sequence, the figures for `C=CCNC1=C2C[C@@H](C)C[C@H](OC)[C@H](O)[C@@H](C)/C=C(\C)[C@H](OC(N)=O)[C@@H](OC)/C=C\C=C(/C)C(=O)NC(=CC1=O)C2=O` [Tanespimycin] were 10.5 DSS, 11.7 DSS and 16.1 DSS.
Regarding `O[C@H]1CC[C@H](Nc2ncc3nc(Nc4c(F)cc(F)cc4F)n([C@H]4CCOC4)c3n2)CC1` [Tanzisertib], the drug sensitivity score under setting [1] stood at 2.9 DSS and the drug sensitivity score under setting [2] stood at 3.4 DSS.
Turning to `C[C@@H](C(=O)O)c1ccc(-c2ccccc2)c(F)c1` [Tarenflurbil], the drug sensitivity score under setting [1] came out at 0 DSS, the drug sensitivity score under setting [3] is 0 DSS and the drug sensitivity score under setting [2] amounted to 0 DSS.
With `Cc1nc(-c2cn3c(n2)-c2ccc(-c4cnn(C(C)(C)C(N)=O)c4)cc2OCC3)n(C(C)C)n1` [Taselisib], the drug sensitivity score under setting [1] is 0 DSS, the drug sensitivity score under setting [3] is 0.7 DSS and the drug sensitivity score under setting [2] turned out to be 0 DSS.
As to `COc1cccc2c1c(O)c(C(=O)N(C)c1ccc(C(F)(F)F)cc1)c(=O)n2C` [Tasquinimod], the drug sensitivity score stood at 3.7 DSS under setting [1], 0 DSS under setting [3] and 2.3 DSS under setting [2].
The like results for `CCN(c1cc(-c2ccc(CN3CCOCC3)cc2)cc(C(=O)NCc2c(C)cc(C)[nH]c2=O)c1C)C1CCOCC1` [Tazemetostat] were, in that order, 3.8 DSS, 0.8 DSS and 2.2 DSS.
Taken in the same sequence, the figures for `CNC(=O)c1cc(COc2nnc(Nc3ccc(Cl)cc3)c3ccoc23)ccn1` [Telatinib] were 0 DSS, 0 DSS and 0 DSS.
The like results for `Cn1nnc2c(C(N)=O)ncn2c1=O` [Temozolomide] were, in that order, 0 DSS, 5.2 DSS and 2.4 DSS.
As to `CO[C@H]1C[C@@H]2CC[C@@H](C)[C@@](O)(O2)C(=O)C(=O)N2CCCC[C@H]2C(=O)O[C@H]([C@H](C)C[C@@H]2CC[C@@H](OC(=O)C(C)(CO)CO)[C@H](OC)C2)CC(=O)[C@H](C)/C=C(\C)[C@@H](O)[C@@H](OC)C(=O)[C@H](C)C[C@H](C)/C=C/C=C/C=C/1C` [Temsirolimus], the drug sensitivity score runs as follows: under setting [1], 11.9 DSS; under setting [2], 9.5 DSS.
Consider `COc1cc([C@@H]2c3cc4c(cc3[C@@H](O[C@@H]3O[C@@H]5CO[C@@H](c6cccs6)O[C@H]5[C@H](O)[C@H]3O)[C@H]3COC(=O)[C@H]23)OCO4)cc(OC)c1O` [Teniposide], for which the drug sensitivity score reads like this: under setting [1], 9.1 DSS; under setting [3], 6 DSS; under setting [2], 7.8 DSS.
The like results for `O=C1CCC(N2C(=O)c3ccccc3C2=O)C(=O)N1` (configuration not stated) [Thalidomide] were, in that order, 0.5 DSS, 0.1 DSS and 2 DSS.
